Data as given in the supplement of paper PMC10307832.

Columns and labels:
Experiment in all cases: relative viability (nuclei count vs DMSO), 5 days (fraction); higher = more cells survive
VE-821 + Pemetrexed = compound: CS(=O)(=O)c1ccc(-c2cnc(N)c(C(=O)Nc3ccccc3)n2)cc1 [VE-821] + Nc1nc2[nH]cc(CCc3ccc(C(=O)N[C@@H](CCC(=O)O)C(=O)O)cc3)c2c(=O)[nH]1 [Pemetrexed] (partner 0.2 µM)
Summary of the method: (§1)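 Relative viability divides the nuclei count in treated wells by that in vehicle wells. Lung cancer cell lines were seeded in 1536-well plates, dosed by pin tool the next day, and fixed and stained after 5 days in one step with final 0.05% Triton X-100, 1% formaldehyde and 1 ug/ml Hoechst. Dosing was a single drug or a fixed anchor-drug dose plus five library-drug doses (not always all listed) in √10 steps, and values are medians of duplicate plates imaged at 4×.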

Vismodegib + AZD7762 = compound: CS(=O)(=O)c1ccc(C(=O)Nc2ccc(Cl)c(-c3ccccn3)c2)c(Cl)c1 [Vismodegib] + NC(=O)Nc1cc(-c2cccc(F)c2)sc1C(=O)N[C@H]1CCCNC1 [AZD7762] (partner 0.2 µM)
Summary of the method: as §1

Ruxolitinib + Foretinib = compound: N#CC[C@H](C1CCCC1)n1cc(-c2ncnc3[nH]ccc23)cn1 [Ruxolitinib] + COc1cc2c(Oc3ccc(NC(=O)C4(C(=O)Nc5ccc(F)cc5)CC4)cc3F)ccnc2cc1OCCCN1CCOCC1 [Foretinib] (partner 0.25 µM)
Summary of the method: as §1

Ruxolitinib + Dasatinib = compound: N#CC[C@H](C1CCCC1)n1cc(-c2ncnc3[nH]ccc23)cn1 [Ruxolitinib] + Cc1nc(Nc2ncc(C(=O)Nc3c(C)cccc3Cl)s2)cc(N2CCN(CCO)CC2)n1 [Dasatinib] (partner 0.075 µM)
Summary of the method: as §1

Row | Cell Line | relative viability (VE-821 + Pemetrexed; first compound 0.08 µM) | relative viability (VE-821 + Pemetrexed; first compound 0.253 µM) | relative viability (VE-821 + Pemetrexed; first compound 0.8 µM) | relative viability (VE-821 + Pemetrexed; first compound 2.53 µM) | relative viability (VE-821 + Pemetrexed; first compound 8 µM) | relative viability (Vismodegib + AZD7762; first compound 0.08 µM) | relative viability (Vismodegib + AZD7762; first compound 0.253 µM) | relative viability (Vismodegib + AZD7762; first compound 0.8 µM) | relative viability (Vismodegib + AZD7762; first compound 2.53 µM) | relative viability (Vismodegib + AZD7762; first compound 8 µM) | relative viability (Ruxolitinib + Foretinib; first compound 0.08 µM) | relative viability (Ruxolitinib + Foretinib; first compound 0.253 µM) | relative viability (Ruxolitinib + Foretinib; first compound 0.8 µM) | relative viability (Ruxolitinib + Foretinib; first compound 2.53 µM) | relative viability (Ruxolitinib + Foretinib; first compound 8 µM) | relative viability (Ruxolitinib + Dasatinib; first compound 0.08 µM) | relative viability (Ruxolitinib + Dasatinib; first compound 0.253 µM) | relative viability (Ruxolitinib + Dasatinib; first compound 0.8 µM) | relative viability (Ruxolitinib + Dasatinib; first compound 2.53 µM) | relative viability (Ruxolitinib + Dasatinib; first compound 8 µM)
1 | NCI-H1734 | 0.413 | 0.391 | 0.374 | 0.351 | 0.297 | 0.575 | 0.447 | 0.552 | 0.556 | 0.488 | 0.862 | 0.713 | 0.894 | 0.759 | 0.815 | 0.522 | 0.433 | 0.503 | 0.38 | 0.341
2 | NCI-H1651 | 0.576 | 0.616 | 0.625 | 0.554 | 0.545 | 0.512 | 0.454 | 0.535 | 0.36 | 0.433 | 0.621 | 0.791 | 0.947 | 0.776 | 0.95 | 0.323 | 0.37 | 0.389 | 0.337 | 0.29
3 | NCI-H2170 | 0.277 | 0.23 | 0.281 | 0.234 | 0.177 | 0.913 | 0.838 | 0.974 | 0.866 | 0.909 | 0.992 | 0.609 | 0.602 | 0.951 | 0.943 | 0.691 | 0.681 | 0.627 | 0.599 | 0.483
4 | NCI-H1975 | 0.297 | 0.282 | 0.264 | 0.213 | 0.167 | 0.689 | 0.649 | 0.642 | 0.729 | 0.631 | 1.04 | 0.933 | 0.995 | 0.956 | 0.603 | 0.387 | 0.374 | 0.357 | 0.363 | 0.227
5 | NCI-H1437 | 0.331 | 0.316 | 0.281 | 0.173 | 0.187 | 1.02 | 1.11 | 1.1 | 1.02 | 1.02 | 1.37 | 1.51 | 1.41 | 1.35 | 1.17 | 0.294 | 0.363 | 0.354 | 0.458 | 0.236
6 | HOP-62 | 0.305 | 0.336 | 0.244 | 0.235 | 0.223 | 0.591 | 0.41 | 0.798 | 0.691 | 0.423 | 1.16 | 1.07 | 1.16 | 1.11 | 1.09 | 0.698 | 0.588 | 0.739 | 0.557 | 0.342
7 | NCI-H2405 | 1.09 | 1.04 | 1.05 | 1.12 | 0.884 | 0.739 | 0.711 | 0.637 | 0.706 | 0.73 |  | 1.06 | 1.17 | 1.08 | 0.875 |  | 0.192 | 0.214 | 0.189 | 0.218
8 | LC-2-ad | 0.265 | 0.286 | 0.272 | 0.264 | 0.24 | 0.823 | 0.822 | 0.84 | 0.864 | 0.751 |  | 0.743 | 0.977 | 0.746 | 0.64 |  | 0.476 | 0.54 | 0.382 | 0.272
9 | NCI-H1944 | 0.693 | 0.695 | 0.495 | 0.384 | 0.172 | 0.492 | 0.557 | 0.408 |  | 0.505 | 0.839 | 0.886 | 0.876 | 0.873 | 0.877 | 0.204 | 0.17 | 0.209 | 0.168 | 0.167
10 | NCI-H322M | 0.616 | 0.639 | 0.542 | 0.532 | 0.385 | 0.598 | 0.503 | 0.603 | 0.507 | 0.548 | 0.964 | 0.99 | 1.18 | 1.22 | 1.43 | 0.248 | 0.258 | 0.241 | 0.238 | 0.217
11 | HCC-366 | 0.159 | 0.127 | 0.144 | 0.0815 | 0.06 | 0.269 | 0.217 | 0.292 | 0.258 | 0.373 | 0.934 | 0.855 | 1.07 | 0.915 | 0.744 | 0.646 | 0.547 | 0.595 | 0.431 | 0.52
12 | HCC-78 | 0.875 | 0.904 | 0.903 | 0.853 | 0.89 | 0.575 | 0.605 | 0.544 | 0.542 | 0.634 | 0.501 | 0.568 | 0.599 | 0.554 | 0.515 | 0.39 | 0.319 | 0.387 | 0.354 | 0.323
13 | CAL-12T | 1.22 | 1.14 | 1.04 | 1.1 | 0.759 | 0.643 | 0.559 | 0.607 | 0.577 | 0.664 | 1.19 | 1.15 | 1.17 | 0.899 | 0.777 | 0.497 | 0.546 | 0.561 | 0.25 | 0.163
14 | EKVX | 0.422 | 0.373 | 0.419 | 0.341 | 0.227 |  | 0.774 | 0.717 | 0.606 | 0.735 | 0.234 | 0.698 | 0.768 | 0.795 | 0.311 | 0.523 | 0.603 | 0.481 | 0.519 | 0.366
15 | HARA | 0.253 | 0.232 | 0.201 | 0.169 | 0.131 | 0.462 |  | 0.309 | 0.244 | 0.417 | 0.882 | 0.851 | 1.05 | 0.879 | 0.806 | 0.224 | 0.323 | 0.305 | 0.195 | 0.22
16 | LXF-289 | 0.902 | 0.928 | 0.936 | 1.01 | 0.847 | 1.02 | 1.1 | 1.1 | 1.09 | 1.08 | 0.902 | 0.957 | 0.97 | 0.91 | 0.871 | 0.192 | 0.191 | 0.216 | 0.135 | 0.0782
17 | NCI-H1793 | 1.2 | 0.769 |  | 1.13 | 0.565 |  | 0.569 | 0.409 | 0.389 | 0.327 | 0.604 | 0.668 | 0.959 | 0.761 | 0.54 | 0.286 | 0.394 | 0.389 | 0.303 | 0.243
18 | NCI-H650 | 0.934 | 0.846 | 1.02 | 0.9 | 0.835 | 0.958 | 0.925 | 0.864 | 0.953 | 1.06 |  | 1 | 1.14 | 0.917 | 0.678 |  | 0.366 | 0.453 | 0.295 | 0.293
19 | NCI-H647 | 0.157 | 0.139 | 0.125 | 0.0986 | 0.0738 | 0.474 | 0.482 | 0.415 | 0.375 | 0.51 | 1.08 | 1.27 | 1.31 | 1.19 | 1.08 | 0.207 | 0.155 | 0.182 | 0.0851 | 0.106
20 | NCI-H3122 | 0.202 | 0.19 | 0.176 | 0.159 | 0.128 | 0.959 | 0.953 | 0.959 | 0.965 | 0.955 | 0.942 | 0.873 | 1.01 | 0.881 | 0.948 | 0.852 | 0.725 | 0.932 | 0.634 | 0.286
21 | PC-3 [JPC-3] | 1.25 | 1.03 | 1.18 | 1.13 | 0.848 | 0.824 | 0.715 | 0.743 | 0.729 | 0.708 | 0.859 | 1.01 | 0.975 | 0.957 | 0.871 | 0.684 | 1.06 | 0.989 | 0.872 | 0.883
22 | NCI-H1355 | 1.15 | 0.976 | 0.888 | 1.05 | 0.903 | 0.763 | 0.694 | 0.806 | 0.744 | 0.722 | 0.85 | 0.967 | 1.12 | 0.87 | 0.893 | 0.711 | 0.532 | 0.579 | 0.522 | 0.36
23 | NCI-H838 | 0.259 | 0.264 | 0.21 | 0.17 | 0.159 | 0.799 | 0.876 | 0.918 | 0.888 | 0.975 | 1.06 | 0.994 | 0.907 | 0.572 | 0.453 | 0.253 | 0.251 | 0.286 | 0.211 | 0.211
